Read-outs that look alike come from different tables or passages of the source.
What was measured:
MV4-11 cells = assay: MV4-11 Cell Cytotoxicity Assay (CellTiter-Blue, 72 h); format: cell-based, human
Summary of the method: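 Viability read-out: CellTiter-Blue, 1 h, fluorescence 560/590 nm. Preceded by 72 h exposure (37° C, 5% CO2) to twofold dilution series from 50 μM, triplicate, 0.5% DMSO vehicle, applied 24 h after plating.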

glutathione (GSH) = assay: Reactivity Profiling with Glutathione (GSH), half-life by HPLC; conditions: 5 mM glutathione (GSH) in IMDM with 10% FBS
[1] = Homo sapiens, MV4-11, MV-4-11 cells
[2] = Homo sapiens, MV4-11 cells, 72 h, CellTiter-Blue, read-out: IC50- MV-4-11

Work on `CC(C)COc1cc(CN(C(=O)CN(Cc2ccc(Cl)cc2)S(=O)(=O)c2c(F)c(F)c(F)c(F)c2F)c2ccc(C(=O)O)c(O)c2)cc(OCC2CC2)c1` [Compound 1010, 4-(2-(N-(4-chlorobenzyl)-(2,3,4,5,6-pentafluorophenyl)sulfonamido)-N-(3-(cyclopropylmethoxy)-5-isobutoxybenzyl)acetamido)-2-hydroxybenzoic acid] yielded an IC50 (MV4-11 cells; [1]) of 3.16 to 100 µM and a half-life at 25 μM (glutathione (GSH)) of 2.37 to 4.12 h.
Molecule `CC(C)(C)c1cc(CN(C(=O)CN(Cc2ccc(Cl)cc2)S(=O)(=O)c2c(F)c(F)c(F)c(F)c2F)c2ccc(C(=O)O)cc2O)cc(C2CC2)c1` [Compound 1015, 4-(N-(3-(tert-butyl)-5-cyclopropylbenzyl)-2-(N-(4-chlorobenzyl)-(2,3,4,5,6-pentafluorophenyl)sulfon-amido)acetamido)-3-hydroxybenzoic acid] has an IC50 (MV4-11 cells; [1]) of 3.16 to 100 µM and a half-life at 25 μM (glutathione (GSH)) of 4.12 to 9.23 h.
With `COc1cc(N(Cc2cc(C3CC3)cc(C(C)(C)C)c2)C(=O)CN(Cc2ccc(Cl)cc2)S(=O)(=O)c2c(F)c(F)c(F)c(F)c2F)ccc1C(=O)O` [Compound 1017, 4-(N-(3-(tert-butyl)-5-cyclopropylbenzyl)-2-(N-(4-chlorobenzyl)-(2,3,4,5,6-pentafluorophenyl)sulfon-amido)acetamido)-2-methoxybenzoic acid] the IC50 (MV4-11 cells; [1]) was 0.316 to 1 µM and the half-life at 25 μM (glutathione (GSH)) was 4.12 to 9.23 h.
Work on `CC(C)c1cc(CN(C(=O)CN(Cc2ccc(Cl)cc2)S(=O)(=O)c2c(F)c(F)c(F)c(F)c2F)c2ccc(C(=O)O)c(O)c2)cc(C2CC2)c1` [Compound 1021, 4-(2-(N-(4-chlorobenzyl)-(2,3,4,5,6-pentafluorophenyl)sulfon-amido)-N-(3-cyclopropyl-5-isopropylbenzyl)acetamido)-2-hydroxybenzoic acid] yielded an IC50 (MV4-11 cells; [1]) of 3.16 to 100 µM and a half-life at 25 μM (glutathione (GSH)) of 0.00167 to 2.37 h.
`CC(C)(C)c1cc(CN(C(=O)CN(Cc2ccc(Cl)cc2)S(=O)(=O)c2c(F)c(F)c(F)c(F)c2F)c2ccc(C(N)=O)cc2)cc(C2CC2)c1` [Compound 1031, 4-(N-(3-(tert-butyl)-5-cyclopropylbenzyl)-2-(N-(4-chlorobenzyl)-(2,3,4,5,6-pentafluorophenyl)sulfon-amido)acetamido) benzamide] was tested, and the IC50 (MV4-11 cells; [1]) was 1 to 3.16 µM and the half-life at 25 μM (glutathione (GSH)) was 9.23 to 1670 h.
`CC(C)(C)c1cc(CN(C(=O)CN(Cc2ccc(Cl)cc2)S(=O)(=O)c2c(F)c(F)c(F)c(F)c2F)c2ccc(C(=O)O)c(F)c2)cc(C2CC2)c1` [Compound 1033, 4-(N-(3-(tert-butyl)-5-cyclopropylbenzyl)-2-(N-(4-chlorobenzyl)-(2,3,4,5,6-pentafluorophenyl)sulfon-amido)acetamido)-2-fluorobenzoic acid] gave an IC50 (MV4-11 cells; [1]) of 1 to 3.16 µM and a half-life at 25 μM (glutathione (GSH)) of 0.00167 to 2.37 h.
In the case of `COc1ccccc1CN(CC(=O)N(Cc1cc(C2CC2)cc(C(C)(C)C)c1)c1ccc(C(=O)O)c(O)c1)S(=O)(=O)c1c(F)c(F)c(F)c(F)c1F` [Compound 1037, 4-(N-(3-(tert-butyl)-5-cyclopropylbenzyl)-2-(N-(2-methoxybenzyl)-(2,3,4,5,6-pentafluoro-phenyl)sulfonamido)acetamido)-2-hydroxybenzoic acid], the IC50 (MV4-11 cells; [1]) is reported as 1 to 3.16 µM and the half-life at 25 μM (glutathione (GSH)) is reported as 2.37 to 4.12 h.
With `C[C@H](CC(=O)N(Cc1cc(C2CC2)cc(C(C)(C)C)c1)c1ccc(C(=O)O)c(O)c1)N(Cc1ccc(Cl)cc1)S(=O)(=O)c1c(F)c(F)c(F)c(F)c1F` [Compound 1039, (R)-4-(N-(3-(tert-butyl)-5-cyclopropylbenzyl)-3-(N-(4-chlorobenzyl)-(2,3,4,5,6-pentafluorophenyl)sulfon-amido)butanamido)-2-hydroxybenzoic acid] the IC50 (MV4-11 cells; [1]) was 1 to 3.16 µM and the half-life at 25 μM (glutathione (GSH)) was 2.37 to 4.12 h.
`C[C@@H](CC(=O)N(Cc1cc(C2CC2)cc(C(C)(C)C)c1)c1ccc(C(=O)O)c(O)c1)N(Cc1ccc(Cl)cc1)S(=O)(=O)c1c(F)c(F)c(F)c(F)c1F` [Compound 1040, (S)-4-(N-(3-(tert-butyl)-5-cyclopropylbenzyl)-3-(N-(4-chlorobenzyl)-(2,3,4,5,6-pentafluorophenyl)sulfon-amido)butanamido)-2-hydroxybenzoic acid] was tested, and the IC50 (MV4-11 cells; [1]) was 3.16 to 100 µM and the half-life at 25 μM (glutathione (GSH)) was 4.12 to 9.23 h.
Work on `O=C(O)c1ccc(N(Cc2cccc(N3CCCC3)c2)C(=O)CN(Cc2cnccc2C(F)(F)F)S(=O)(=O)c2c(F)c(F)c(F)c(F)c2F)c(OC2CC2)c1` [Compound 1159, 3-cyclopropoxy-4-(2-(N-((4-(trifluoromethyl)pyridin-3-yl)methyl)-(2,3,4,5,6-pentafluoro-phenyl)sulfonamido)-N-(3-(pyrrolidin-1-yl)benzyl)acetamido) benzoic acid] yielded a half-life at 25 μM (glutathione (GSH)) of 0.00167 to 2.37 h.
For `O=C(O)c1ccc(N(Cc2cccc(N3CCCC3)c2)C(=O)CN(Cc2ncccc2C(F)(F)F)S(=O)(=O)c2c(F)c(F)c(F)c(F)c2F)c(OC2CC2)c1` [Compound 1160, 3-cyclopropoxy-4-(2-(N-((3-(trifluoromethyl)pyridin-2-yl)methyl)-(2,3,4,5,6-pentafluoro-phenyl)sulfonamido)-N-(3-(pyrrolidin-1-yl)benzyl)acetamido) benzoic acid], the half-life at 25 μM (glutathione (GSH)) was 0.00167 to 2.37 h.
`COc1cc(C(=O)OC(C)C)ccc1N(Cc1cc(C2CC2)cc(C(C)(C)C)c1)C(=O)CN(Cc1cnccc1C(F)(F)F)S(=O)(=O)c1c(F)c(F)c(F)c(F)c1F` [Compound 1172, isopropyl 4-(N-(3-(tert-butyl)-5-cyclopropylbenzyl)-2-(N-((4-(trifluoromethyl)pyridin-3-yl)methyl)-(2,3,4,5,6-pentafluoro-phenyl)sulfonamido)acetamido)-3-methoxybenzoate] gave a half-life at 25 μM (glutathione (GSH)) of 9.23 to 1670 h.
For `COc1cc(C(=O)O)ccc1N(Cc1cc(C2CC2)cc(C(C)(C)C)c1)C(=O)CN(Cc1ncc(Cl)cc1F)S(=O)(=O)c1c(F)c(F)c(F)c(F)c1F` [Compound 1177, 4-(N-(3-(tert-butyl)-5-cyclopropylbenzyl)-2-(N-((5-chloro-3-fluoropyridin-2-yl)methyl)-(2,3,4,5,6-pentafluorophenyl)sulfon-amido)acetamido)-3-methoxybenzoic acid], the half-life at 25 μM (glutathione (GSH)) was 0.00167 to 2.37 h.
Work on `COc1cc(O)ccc1N(Cc1cc(C2CC2)cc(C(C)(C)C)c1)C(=O)CN(Cc1cnccc1C(F)(F)F)S(=O)(=O)c1c(F)c(F)c(F)c(F)c1F` [Compound 1267, N-(3-(tert-butyl)-5-cyclopropylbenzyl)-N-(4-hydroxy-2-methoxyphenyl)-2-(N-((4-(trifluoromethyl)pyridin-3-yl)methyl)-(2,3,4,5,6-pentafluoro-phenyl)sulfonamido) acetamide] yielded a half-life at 25 μM (glutathione (GSH)) of 9.23 to 1670 h.
For `O=C(O)c1ccc(N(Cc2cc(OCC(F)(F)F)cc(OCC(F)(F)F)c2)C(=O)CN(Cc2ccc(Cl)cc2)S(=O)(=O)c2c(F)c(F)c(F)c(F)c2F)cc1O` [Compound 2009, 4-(N-(3,5-bis(2,2,2-trifluoroethoxy)benzyl)-2-(N-(4-chlorobenzyl)-(2,3,4,5,6-pentafluorophenyl)sulfon-amido)acetamido)-2-hydroxybenzoic acid], the IC50 (MV4-11 cells; [2]) was 3.16 to 100 µM.
`O=C(O)c1ccc(N(Cc2cc(O)cc(O)c2)C(=O)CN(Cc2ccc(Cl)cc2)S(=O)(=O)c2c(F)c(F)c(F)c(F)c2F)cc1O` [Compound 2010, 4-(2-(N-(4-chlorobenzyl)-(2,3,4,5,6-pentafluorophenyl)sulfon-amido)-N-(3,5-dihydroxybenzyl)acetamido)-2-hydroxybenzoic acid] gave an IC50 (MV4-11 cells; [2]) of 3.16 to 100 µM.
`CC(C)(C)c1cccc(CN(C(=O)CN(C23CC(C2)C3)S(=O)(=O)c2c(F)c(F)c(F)c(F)c2F)c2ccc(C(=O)O)c(O)c2)c1` [Compound 2011, 4-(2-(N-(bicyclo[1.1.1]pentan-1-yl)-(2,3,4,5,6-pentafluorophenyl)sulfon-amido)-N-(3-(tert-butyl)benzyl)acetamido)-2-hydroxybenzoic acid] was tested, and the IC50 (MV4-11 cells; [2]) was 1 to 3.16 µM.
`O=C(O)c1ccc(N(Cc2cc(Cl)cc(Cl)c2)C(=O)CN(Cc2ccc(Cl)cc2)S(=O)(=O)c2c(F)c(F)c(F)c(F)c2F)cc1O` [Compound 2012, 4-(2-(N-(4-chlorobenzyl)-(2,3,4,5,6-pentafluorophenyl)sulfon-amido)-N-(3,5-dichlorobenzyl)acetamido)-2-hydroxybenzoic acid] was tested, and the IC50 (MV4-11 cells; [2]) was 3.16 to 100 µM.
With `O=C(O)c1ccc(N(Cc2cc(Cl)cc(Br)c2)C(=O)CN(Cc2ccc(Cl)cc2)S(=O)(=O)c2c(F)c(F)c(F)c(F)c2F)cc1O` [Compound 2013, 4-(N-(3-bromo-5-chlorobenzyl)-2-(N-(4-chlorobenzyl)-(2,3,4,5,6-pentafluorophenyl)sulfon-amido)acetamido)-2-hydroxybenzoic acid] the IC50 (MV4-11 cells; MV4-11 cells, 72 h, CellTiter-Blue, read-out: IC50- MV-4-11) was 3.16 to 100 µM.
In the case of `CC(C)(C)c1cc(N(C(=O)CN(Cc2ccc(Cl)cc2)S(=O)(=O)c2c(F)c(F)c(F)c(F)c2F)c2ccc(C(=O)O)c(O)c2)cc(C(C)(C)C)c1` [Compound 2014, 4-(2-(N-(4-chlorobenzyl)-(2,3,4,5,6-pentafluorophenyl)sulfon-amido)-N-(3,5-di-tert-butylphenyl)acetamido)-2-hydroxybenzoic acid], the IC50 (MV4-11 cells; [2]) is reported as 1 to 3.16 µM.
`COc1cc(C(=O)O)ccc1N(C)C(=O)CN(Cc1ccccc1C(F)(F)F)S(=O)(=O)c1c(F)c(F)c(F)c(F)c1F` [Compound 2018, 3-methoxy-4-(N-methyl-2-(N-(2-(trifluoromethyl)benzyl)-(2,3,4,5,6-pentafluoro-phenyl)sulfonamido)acetami-do)benzoic acid] gave an IC50 (MV4-11 cells; [2]) of 1 to 3.16 µM.
`CC1(C)OC(=O)c2ccc(N(Cc3cc(C4CC4)cc(C(C)(C)C)c3)C(=O)CN(Cc3ccc(Cl)cc3)S(=O)(=O)c3c(F)c(F)c(F)c(F)c3F)cc2O1` [Compound 2022, N-(3-(tert-butyl)-5-cyclopropylbenzyl)-2-(N-(4-chlorobenzyl)-(2,3,4,5,6-pentafluorophenyl)sulfon-amido)-N-(2,2-dimethyl-4-oxo-4H-benzo[d][1,3]dioxin-7-yl)acetamide] gave an IC50 (MV4-11 cells; [2]) of 3.16 to 100 µM.

— patent publication US20230159445A1, “STAT INHIBITORY COMPOUNDS AND COMPOSITIONS” (JANPIX LIMITED, priority 2020, published 2023)
